Laboratory results reported in PubChem BioAssay AID1963833 (Molecular Pharmacology Branch, DTP, NCI, 2024).

Tested on: 883617-216-R-J1-PDC complex spheroid viability
Assay: Anticancer human tumor 883617-216-R-J1-PDC patient-derived bladder carcinoma cell line growth inhibition [POLQ]
Conditions: for IC50: curve of first compound; for viability, T/C: stronger effect = lower value
Method: Multicellular complex tumor spheroid response to Polymerase (POL) inhibitors (novobiocin, ART-558, RP6685) in combination with a variety of drugs and investigational agents in selected tumor cell lines
The POL inhibitors (novobiocin, ART-558, and RP6685) were evaluated both individually and in combination with standard of care and investigational anticancer small molecules within a complex spheroid model of solid tumors. . Complex spheroids include a stromal component modeled by human endothelial cells (HUVEC) and fibroblasts modeled by human mesenchymal stem cells (MSCs). The concentration ranges selected for each drug and investigational agent were based upon clinically achievable concentrations if the clinical Cmax of the agent was known.
Compounds. The drugs and investigational agents: novobiocin (NSC847541), ART-558 (NSC835418), RP-6685 (NSC848927), peposertib (NSC802822), ceralasertib (NSC780249), elimusertib (NSC800525), camonsertib (NSC841442), AZD-1390 (NSC803789), olaparib (NSC753686), talazoparib (NSC767125), rucaparib (NSC756644), sotorasib (NSC818433), MRTX-1133 (NSC836407), SN-38 (NSC673596), topotecan (NSC609699), epotoside (NSC141540), doxorubicin (NSC123127), gemcitabine (NSC613327), 5-fluorouracil (NSC19893), paclitaxel (NSC125973), vemurafenib (NSC761431), MSA-2 (NSC828583), SN-011 (NSC837082), adavosertib (NSC754352), prexasertib (NSC758257), carboplatin (NSC241240) and oxaliplatin (NSC266046), were obtained from the National Cancer Institute (NCI) Developmental Therapeutics Program Chemical Repository (21). The FDA-approved anticancer drug set is available from the Developmental Therapeutics Program at https://dtp.cancer.gov/organization/dscb/obtaining/. […] The stock solutions were prepared in dimethyl sulfoxide (DMSO, Sigma-Aldrich, St. Louis, MO, cat. D2650), except for the platinum compounds which were prepared in saline (Quality Biological, Gaithersburg, MD, cat. 114-055-101), at 800-fold the tested concentration and stored at -70 degrees C prior to their use. All drugs and investigational agents were tested over a range starting from a high concentration at or near the clinical Cmax and decreasing in half-log increments. If the clinical Cmax for an agent had not been determined, the highest concentration tested was 10 microM, except for SN-38, which was tested at a high concentration of 1 microM.
Cell Culture. All cells were maintained in an incubator at 37 degrees C and 5% CO2 with 95% humidity. The PDC lines were cultured according to standard operating procedures established by the NCI PDMR (https://pdmr.cancer.gov). Table 3 of the manuscript, lists the cell lines along with the number of the three cell types plated to form the mct-spheroids and media for tumor cell growth. After thawing, all PDC lines, except 997537-175-T-J1-PDC and 415267-285-R-J2-PDC, were cultured in Matrigel-coated flasks prepared with a working solution of 1X Ham's F-12 nutrient mix, without supplementation (Thermo Fisher Scientific, cat. 11765054), 100 U/mL penicillin-streptomycin (Thermo Fisher Scientific, cat. 15140122), and 2.5% Matrigel (Corning Inc., Corning, NY, cat. 354248) for the first three passages. The two PDC lines 997537-175-T-J1-PDC and 415267-285-R-J2-PDC were cultured on uncoated flasks. The 857933-349-R-J2-PDC line was cultured in 6C/Colon 1B media containing advanced DMEM/F-12 (Thermo Fisher Scientific, cat. 12634028), 10 mM HEPES (Thermo Fisher Scientific, cat. 15630080), 1X GlutaMAX supplement (Thermo Fisher Scientific, cat. 35050061), 0.1 mg/mL primocin (InvivoGen, San Diego, CA, cat. ant-pm-2), 10% defined fetal bovine serum, heat inactivated (HyClone Laboratories Inc., Logan, UT, cat. SH30070.03HI), 50% L-WRN conditioned media (ATCC, cat. CRL-3276), 1.25 mM N-Acetyl-L-cysteine (Sigma-Aldrich, cat. A9165), 10 mM nicotinamide (Sigma-Aldrich, cat. N0636), 1X B-27 supplement (Thermo Fisher Scientific, cat. 17504044), 1X N-2 supplement (Thermo Fisher Scientific, cat. […]

[1] = second compound 0.0316 µM, first compound 0.0316 µM
[2] = second compound 0.0316 µM, first compound 0.1 µM
[3] = second compound 0.0316 µM, first compound 0.316 µM
[4] = second compound 0.0316 µM, first compound 1 µM
[5] = second compound 0.1 µM, first compound 0.0316 µM
[6] = second compound 0.1 µM, first compound 0.1 µM
[7] = second compound 0.1 µM, first compound 0.316 µM
[8] = second compound 0.1 µM, first compound 1 µM
[9] = second compound 0.316 µM, first compound 0.0316 µM
[10] = second compound 0.316 µM, first compound 0.1 µM
[11] = second compound 0.316 µM, first compound 0.316 µM
[12] = second compound 0.316 µM, first compound 1 µM
[13] = second compound 1 µM, first compound 0.0316 µM
[14] = second compound 1 µM, first compound 0.1 µM
[15] = second compound 1 µM, first compound 0.316 µM
[16] = second compound 1 µM, first compound 1 µM
[17] = second compound 3.16 µM, first compound 0.0316 µM
[18] = second compound 3.16 µM, first compound 0.1 µM
[19] = second compound 3.16 µM, first compound 0.316 µM
[20] = second compound 3.16 µM, first compound 1 µM
[21] = second compound 10 µM, first compound 0.0316 µM
[22] = second compound 10 µM, first compound 0.1 µM
[23] = second compound 10 µM, first compound 0.316 µM
[24] = second compound 10 µM, first compound 1 µM
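Further: spheroids exposed to compounds for seven days before readout.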
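Wherever viability, T/C is given: 100% = DMSO vehicle control viability.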

`C=CCn1c(=O)c2cnc(Nc3ccc(N4CCN(C)CC4)cc3)nc2n1-c1cccc(C(C)(C)O)n1` + Nc1ccc(C#CCN(C(=O)Cc2ncc(C(F)(F)F)cc2C(F)(F)F)c2ccc(F)cc2)nn1 was tested. Which IC50 (second compound 0.0316 µM) did it give?
Its IC50 is greater than 1 µM.

What about the IC50 (second compound 0.1 µM) of the same molecule?
The IC50 was greater than 1 µM.

What about the IC50 (second compound 0.316 µM) of the same molecule?
Its IC50 is greater than 1 µM.

What about the IC50 (second compound 1 µM) of the same molecule?
Its IC50 is 0.978 µM.

What about the IC50 (second compound 3.16 µM) of the same molecule?
The IC50 was greater than 1 µM.

What about the IC50 (second compound 10 µM) of the same molecule?
The IC50 was 0.924 µM.

What about the viability, T/C (second compound 0.0316 µM, first compound 0.00316 µM) of the same molecule?
Its viability, T/C is 102%.

What about the viability, T/C (second compound 0.0316 µM, first compound 0.01 µM) of the same molecule?
The viability, T/C was 98.9%.

And the viability, T/C [1]?
The viability, T/C was 84.3%.

And the viability, T/C [2]?
Its viability, T/C is 113%.

And the viability, T/C [3]?
The viability, T/C was 96.4%.

What about the viability, T/C [4] of the same molecule?
Its viability, T/C is 59.8%.

What about the viability, T/C (second compound 0.1 µM, first compound 0.00316 µM) of the same molecule?
The viability, T/C was 100%.

What about the viability, T/C (second compound 0.1 µM, first compound 0.01 µM) of the same molecule?
The viability, T/C was 95.6%.

And the viability, T/C [5]?
The viability, T/C was 95.8%.

What about the viability, T/C [6] of the same molecule?
Its viability, T/C is 94.1%.

What about the viability, T/C [7] of the same molecule?
Its viability, T/C is 88.3%.

What about the viability, T/C [8] of the same molecule?
Its viability, T/C is 86.8%.

And the viability, T/C (second compound 0.316 µM, first compound 0.00316 µM)?
Its viability, T/C is 102%.

And the viability, T/C (second compound 0.316 µM, first compound 0.01 µM)?
The viability, T/C was 115%.

And the viability, T/C [9]?
The viability, T/C was 106%.

And the viability, T/C [10]?
Its viability, T/C is 108%.

And the viability, T/C [11]?
Its viability, T/C is 92.4%.

What about the viability, T/C [12] of the same molecule?
Its viability, T/C is 63.6%.

What about the viability, T/C (second compound 1 µM, first compound 0.00316 µM) of the same molecule?
Its viability, T/C is 101%.

And the viability, T/C (second compound 1 µM, first compound 0.01 µM)?
Its viability, T/C is 96.5%.

What about the viability, T/C [13] of the same molecule?
The viability, T/C was 81.1%.

What about the viability, T/C [14] of the same molecule?
The viability, T/C was 101%.

What about the viability, T/C [15] of the same molecule?
The viability, T/C was 103%.

What about the viability, T/C [16] of the same molecule?
The viability, T/C was 49%.

And the viability, T/C (second compound 3.16 µM, first compound 0.00316 µM)?
The viability, T/C was 115%.

And the viability, T/C (second compound 3.16 µM, first compound 0.01 µM)?
Its viability, T/C is 109%.

And the viability, T/C [17]?
Its viability, T/C is 85.7%.

What about the viability, T/C [18] of the same molecule?
The viability, T/C was 99.3%.

And the viability, T/C [19]?
The viability, T/C was 115%.

What about the viability, T/C [20] of the same molecule?
The viability, T/C was 58.4%.

And the viability, T/C (second compound 10 µM, first compound 0.00316 µM)?
The viability, T/C was 126%.

What about the viability, T/C (second compound 10 µM, first compound 0.01 µM) of the same molecule?
Its viability, T/C is 101%.

And the viability, T/C [21]?
The viability, T/C was 108%.

And the viability, T/C [22]?
Its viability, T/C is 116%.

And the viability, T/C [23]?
Its viability, T/C is 128%.

And the viability, T/C [24]?
The viability, T/C was 45.1%.

Which results are given for `CC1COCCN1c1cc(C2(S(C)(=N)=O)CC2)nc(-c2ccnc3[nH]ccc23)n1` (centres undefined) + Nc1ccc(C#CCN(C(=O)Cc2ncc(C(F)(F)F)cc2C(F)(F)F)c2ccc(F)cc2)nn1?
IC50 (second compound 0.0316 µM): 5.98 µM; IC50 (second compound 0.1 µM): 5.7 µM; IC50 (second compound 0.316 µM): 4.48 µM; IC50 (second compound 1 µM): 4.27 µM; IC50 (second compound 3.16 µM): 6.2 µM; IC50 (second compound 10 µM): 3.53 µM; viability, T/C [1]: 110%; viability, T/C [2]: 108%; viability, T/C [3]: 89.2%; viability, T/C [4]: 76.8%; viability, T/C (second compound 0.0316 µM, first compound 3.16 µM): 59.7%; viability, T/C (second compound 0.0316 µM, first compound 10 µM): 42.5%; viability, T/C [5]: 82.7%; viability, T/C [6]: 101%; viability, T/C [7]: 89.8%; viability, T/C [8]: 76.4%; viability, T/C (second compound 0.1 µM, first compound 3.16 µM): 62%; viability, T/C (second compound 0.1 µM, first compound 10 µM): 39.6%; viability, T/C [9]: 96.7%; viability, T/C [10]: 111%; viability, T/C [11]: 93.1%; viability, T/C [12]: 73.4%; viability, T/C (second compound 0.316 µM, first compound 3.16 µM): 56.7%; viability, T/C (second compound 0.316 µM, first compound 10 µM): 40.2%; viability, T/C [13]: 99.5%; viability, T/C [14]: 90.3%; viability, T/C [15]: 87.5%; viability, T/C [16]: 65.4%; viability, T/C (second compound 1 µM, first compound 3.16 µM): 56.6%; viability, T/C (second compound 1 µM, first compound 10 µM): 37.4%; viability, T/C [17]: 114%; viability, T/C [18]: 93.1%; viability, T/C [19]: 97.6%; viability, T/C [20]: 82.3%; viability, T/C (second compound 3.16 µM, first compound 3.16 µM): 63.8%; viability, T/C (second compound 3.16 µM, first compound 10 µM): 39.4%; viability, T/C [21]: 98.1%; viability, T/C [22]: 105%; viability, T/C [23]: 102%; viability, T/C [24]: 83.7%; viability, T/C (second compound 10 µM, first compound 3.16 µM): 52%; viability, T/C (second compound 10 µM, first compound 10 µM): 37.5%
